Source: patent US7303921B2, “Method to assay coenzyme Q10 in blood plasma or blood serum” (priority 2002, dated 2007)
Several values for one entry are separate records, joined by “and”; a condition that tells them apart may be missing. Equal values may be shown once.

Experiments:
[1] = Stability of total CoQ10 in plasma at different storage conditions and times; format: physicochemical, human
Procedure: In order to check the stability of total CoQ10 in plasma, aliquots of 3 different samples were kept for 3 days at 4° C., room temperature (22° C.) and at −20° C. respectively.
(§1) Description of the Analysis. 200 μl of a blood plasma sample were supplemented with 50 μl of a 1,4 benzoquinone solution (2 mg/ml) in a test tube and vortexed for 10 seconds. After 10 minutes, 1 ml of n-propanol was added. The test tube was vortexed for 10 seconds and centrifuged at 10,000 rpm for 2 minutes in order to spin down the protein precipitate. 200 μl of the supernatant were injected into the HPLC. […] Mobile phase was constituted by ethanol-methanol (65%-35%) and the flux was 1 ml/min. UV detection was performed at 275 nm.

[2] = Stability of the n-propanol extract (supernatant) of plasma CoQ10; format: physicochemical
Procedure: as §1
For practical reasons the propanol extract can be kept in the refrigerator up to 3 days before injection into the HPLC. Several samples were checked by analysing them 1 hour, 1, 2 and 4 days after drawing the blood, keeping the samples at −20° C., 0-4° C., or +22° C. (room temperature) and the results, as far as total CoQ10 was concerned, were the same for the same sample whether kept at different temperatures or for different lengths of time (presumably only the reduced/oxidised CoQ10 ratio changed). There was no need to add any stabilizing agent to the sample.

Mean total CoQ10 ([1]; 0-4° C., 72 h, plasma samples A, B, C): 1.82 µM and 1.11 µM
total CoQ10 result after storage of samples ([1]; 1 hour, 1, 2 and 4 days after drawing the blood, −20° C., 0-4° C. or +22° C., no stabilizing agent): the same
stability of supernatant (propanol extract) ([2]; capped test tube, kept at 22° C.): stable for up to three days
time the propanol extract can be kept before injection into the HPLC ([2]; in the refrigerator): up to 3 days
SMILES: COC1=C(OC)C(=O)C(C/C=C(\C)CC/C=C(\C)CC/C=C(\C)CC/C=C(\C)CC/C=C(\C)CC/C=C(\C)CC/C=C(\C)CC/C=C(\C)CC/C=C(\C)CCC=C(C)C)=C(C)C1=O [CoQ10]
stability of total CoQ10 in plasma ([1]; even when kept at room temperature): practically stable for at least three days
